What all share (assay type): physicochemical
Data set [1] is described as follows: ΔE before/after UVA irradiation of dyes at 1% in a white lipstick base (Example 5). To be noted: 1% by weight dye in white lipstick base; UVA 2 mW/cm^2 for two minutes. The procedure:
The ΔE (before and after UV irradiation for 2 minutes) of various photochromic dyes according to the invention was determined, at 1% by weight in a white lipstick base comprising:
A composition comprising 1% of dye according to the invention and 99% of the above base is thus prepared.
(§1) The L, a and b measurements were performed on a Leneta brand contrast card of reference Form 1A Penopac, for a composition spread to a thickness of 50 microns.
(§2) The reflection measurements were performed using a Minolta 3700D spectrocolorimeter.
(§3) The initial trichromatic coordinates of the composition before irradiation (L0, a0 and b0) were thus determined.
The compositions were then subjected to a UV irradiation (flux of 2 mW/cm^2 of a UVA radiation) for two minutes and then, immediately after stopping the irradiation, the trichromatic coordinates after irradiation (L, a and b) were determined. Less than 5 seconds elapsed between the stopping of the irradiation and the determination of the new coordinates.
(§4) The ΔE was then calculated in the following manner: ΔE=[(L−L0)^2+(a−a0)^2+(b−b0)^2]^1/2

A short description of data set [2]: Solubility of the dye in various silicone oils, observed with the naked eye (Example 1). The procedure:
The term “soluble” means that the dyes form a uniform mixture, free of particles that are apparent to the naked eye, at 25° C. and 1 atmosphere, in a proportion of 0.05% by weight in the oily phase.
The solubility of a dye according to the invention in various silicone oils was studied. Several mixtures comprising 0.05% by weight of 3-phenyl-3-(4-piperidinophenyl)-6-morpholino-3H-naphtho[2,1-b]pyran (Reversacol Ruby from James Robinson) in various oils were thus prepared, and the mixture was then heated to 60° C. with stirring.

A short description of data set [3]: Visual colour change of the dye solution in phenylsilicone oil on UV (sunlight) irradiation (Example 2). To be noted: 0.05% by weight in phenylsilicone oil DC556. The procedure:
A solution comprising 0.05% by weight of 3-phenyl-3-(4-piperidinophenyl)-6-morpholino-3H-naphtho[2,1-b]pyran (Reversacol Ruby from James Robinson) in a phenylsilicone oil (DC556 from Dow Corning) was prepared. The mixture was then irradiated with UV (sunlight) for 2 minutes.

Data set [4] in a line: Solvatochromism: ΔE′ of oil + dye mixture versus oil alone, transmission, no UV (Example 6). Set-up: key: ΔE′ = √(ΔL²+Δa²+Δb²), oil alone vs oil+dye, transmission. As to conditions: without UV. The procedure: The trichromatic coordinates (Lh, ah and bh) of the oil alone and of the oil+dye mixture (Lm, am and bm) were thus determined, and the ΔE′ was calculated in the following manner: ΔE′=[Lh−Lm)^2+(ah−am)^2+(bh−bm)^2]^1/2.
To do this, a Minolta 3700D spectrocolorimeter in transmission mode was used, with a plastic cuvette (“cuvette walls+oil+optional dye” optical path length=1 cm).

Data set [5] in a line: ΔE of oil + dye mixtures after UVA irradiation (Example 7). Details: key: ΔE = [(Lm′−Lm)^2+(am′−am)^2+(bm′−bm)^2]^1/2, before vs after UVA. As to conditions: UVA 2 mW/cm^2 for 2 minutes. The procedure:
The mixtures prepared in Example 6 were irradiated with UV (flux of 2 mW/cm^2 of UVA) for 2 minutes.
The trichromatic coordinates of the mixture after irradiation (Lm′, am′ and bm′) were again determined, as in Example 2, and the ΔE was calculated in the following manner: ΔE=[(Lm′−Lm)^2+(am′−am)^2+(bm′−bm)^2]^1/2.
Less than 5 seconds elapsed between stopping the irradiation and determining the new coordinates.

The nature of data set [6]: ΔE before/after UVA irradiation of wax-structured compositions, 50 micron film on contrast card, reflection (Examples 3 and 8). The procedure: as §1, §2
The initial trichromatic coordinates of the composition before irradiation (L0, a0 and b0) were thus determined. The composition was then subjected to a UV irradiation (flux of 2 mW/cm^2 of a UVA radiation) for two minutes and then, immediately after stopping the irradiation, the trichromatic coordinates after irradiation (L, a and b) were determined. Less than 5 seconds elapsed between the stopping of the irradiation and the determination of the new coordinates.
The ΔE was then calculated in the following manner: ΔE=[(L−L0)^2+(a−a0)^2+(b−b0) ^2]^1/2
A composition was prepared, comprising: • 0.05% by weight of 3-phenyl-3-(4-piperidinophenyl)-6-morpholino-3H-naphtho[2,1-b]pyran (Reversacol Ruby from James Robinson), • 15% by weight of polyethylene wax (apolar wax), • qs 100% of phenylsilicone oil (DC556 from Dow Corning).
as §3
The composition was then subjected to a UV irradiation (flux of 2 mW/cm^2 of a UVA radiation) for two minutes and then, immediately after stopping the irradiation, the trichromatic coordinates after irradiation (L, a and b) were determined. Less than 5 seconds elapsed between the stopping of the irradiation and the determination of the new coordinates.
as §4
15% by weight of polyethylene wax (apolar wax) was added to the mixtures prepared in Example 6 (oils+0.05% by weight of Reversacol Ruby dye), and the trichromatic coordinates L, a and b were then measured, before and after irradiation with UV for 2 minutes (flux of 2 mW/cm^2 of UVA) on thin films of composition, 50 microns thick, poured onto a contrast card.
To do this, a Minolta 3700D spectrocolorimeter in reflection mode was used; less than 5 seconds elapsed between stopping the irradiation and determining the new coordinates.

Where [7] appears, read: 0.05% dye in Capric/caprylic acid triglyceride.
Setting [8] is: 0.05% dye in Diisostearyl malate.
Setting [9] is: 0.05% dye in Hydrogenated polyisobutene.
[10] abbreviates: 0.05% dye in Isononyl isononanoate.
Where [11] appears, read: 0.05% dye in Tridecyl trimellitate.

The values below come from US20050276767A1, “Composition containing an oily phase and a naphthopyran dye, cosmetic treatment processes” (L'OREAL, priority 2002, published 2005).

`COc1ccc(C2(c3ccc(OC)cc3)C=Cc3c(cc(N4CCOCC4)c4ccccc34)O2)cc1` [3,3-di(4-methoxyphenyl)-6-morpholino-3H-naphtho-[2,1-b]pyran]: the ΔE in data set [1] was 51.
Still for that read-out and setting: with `C1=CC(c2ccccc2)(c2ccc(N3CCOCC3)cc2)Oc2cc(N3CCOCC3)c3ccccc3c21` (stereo not drawn) [3-phenyl-3-(4-morpholinophenyl)-6-morpholino-3H-naphtho[2,1-b]pyran] the figure was 53.
Turning to `C1=CC(c2ccccc2)(c2ccc(N3CCCCC3)cc2)Oc2cc(N3CCOCC3)c3ccccc3c21` (stereo not drawn) [Reversacol Ruby, 3-phenyl-3-(4-piperidinophenyl)-6-morpholino-3H-naphtho[2,1-b]pyran], the “Dissolution at elevated temperature (60° C.)” value in data set [2] (0.05% by weight dye in Phenyltrimethylsiloxytrisiloxane (20 cSt) DC556 from Dow Corning) and in data set [2] (0.05% by weight dye in Polyphenyltrimethylsiloxydimethylsiloxane (1000 cSt) Belsil PDM 1000 from Wacker) was “Total dissolution” throughout. Further, the “Coloration of the solution of the dye (solvatochromic effect)” value in data set [2] (in the phenylsilicones, not for the other oils) is listed as “pink coloration”. Also, in data set [2] (non-phenylated silicone media, room temperature), the “Dissolution in the other silicone-based media after cooling to room temperature” value is reported as “virtually undissolved”. Besides, the “Dissolution at elevated temperature in non-phenylated oils” value in data set [2] (non-phenylated silicone oils, elevated temperature) was “dissolves poorly”. For the same compound, the “Dissolution at elevated temperature in the phenylated oils” value in data set [2] (phenylated silicone oils, irrespective of viscosity, elevated temperature) is listed as “complete”. Moreover, the “Dissolution in phenylsilicones after cooling to room temperature” value in data set [2] (phenylsilicones, room temperature) is given as “virtually complete dissolution”. The ΔE in data set [1] worked out at 49; in data set [5] (setting [7]), 23.70; in data set [5] (0.05% dye in Castor oil), 19.02; in data set [5] (setting [8]), 38.79; in data set [5] (setting [9]), 17.69; in data set [5] (0.05% dye in Isododecane), 19.17. The ΔE in data set [5] (setting [10]) worked out at 25.47; in data set [5] (0.05% dye in Octyldodecanol), 20.88; in data set [5] (setting [11]), 13.74; in data set [5] (0.05% dye in Triisononanoin), 21.62; in data set [6] (0.05% dye, 15% polyethylene wax, qs phenylsilicone oil DC556, UVA 2 mW/cm^2 for two minutes), 37.38; in data set [6] (15% wax + 0.05% dye in Castor oil, UVA 2 mW/cm^2 for 2 minutes, 50 micron film), 26.75. The ΔE in data set [6] (15% wax + 0.05% dye in Diisostearyl malate, UVA 2 mW/cm^2 for 2 minutes, 50 micron film) is listed as 43.12; in data set [6] (15% wax + 0.05% dye in Hydrogenated polyisobutene, UVA 2 mW/cm^2 for 2 minutes, 50 micron film) it was 18.36; in data set [6] (15% wax + 0.05% dye in Isododecane, UVA 2 mW/cm^2 for 2 minutes, 50 micron film), 27.21; in data set [6] (15% wax + 0.05% dye in Isononyl isononanoate, UVA 2 mW/cm^2 for 2 minutes, 50 micron film) it was 27.74; in data set [6] (15% wax + 0.05% dye in Octyldodecanol, UVA 2 mW/cm^2 for 2 minutes, 50 micron film), 31.09; in data set [6] (15% wax + 0.05% dye in Tridecyl trimellitate, UVA 2 mW/cm^2 for 2 minutes, 50 micron film), 31.98. Moreover, the ΔE in data set [6] (15% wax + 0.05% dye in Triisononanoin, UVA 2 mW/cm^2 for 2 minutes, 50 micron film) is 33.70. Besides, the “Initial coloration of the mixture before irradiation” value in data set [3] was “pink”. Moreover, in data set [3] (UV (sunlight) for 2 minutes), the Coloration after irradiation entry is given as “strong orange-red”. For the same compound, the “ΔE′ of the oil + dye mixture” value in data set [4] (setting [7]) was 12.4093; in data set [4] (0.05% dye in Castor oil) it was 33.6278; in data set [4] (setting [8]), 12.9041; in data set [4] (setting [9]), 6.6920; in data set [4] (0.05% dye in Isododecane), 4.2421; in data set [4] (setting [10]), 7.7386. In addition, the “ΔE′ of the oil + dye mixture” value in data set [4] (0.05% dye in Octyldodecanol) came to 37.6049; in data set [4] (setting [11]), 14.2178; in data set [4] (0.05% dye in Triisononanoin) it was 12.8122.
